Tested on: TNF-α
Assay: Screening of TNF-α inhibitory effect, LPS-stimulated PBMC-derived monocytes (Example 2)
Format: cell-based, human
Conditions: 4 uM peptide, 2 hrs, LPS 10 ng/ml; for TNF-α inhibiting effect compared to the group treated with LPS and estrogen: estrogen 20 nM
Procedure: PBMC (peripheral blood mononuclear cells) layer was separated from blood samples (50 ml) collected in healthy subjects using Biocoll Separating Solution (Biochrom AG, Berlin, Germany). The collected PBMC were enriched in RPMI 1640 medium containing 20% human serum for 30 mins, and then transferred to 100-mm polystyeren cell culture plate coated with human serum for incubation for 2 hrs at 37° C., 5% CO^2 incubator. Monocytes were detached from the bottom of the plate using cold PBS, and incubated to reach the number of 1 × 10^5 cell/well in 96-well plate with RPMI 1640 medium (supplemented with penicillinstreptomycin; […], human serum; 20%) over night.
ELISA was performed to find out how the peptides of the PEP RIA series influence TNF-α level. PBMC-derived monocytes were incubated to reach the number of 1 × 10^5 cells per well in a 96-well plate and then treated with LPS (lipopolysaccharide; 10 ng/ml, Sigma) for 2 hours. To the monocytes that were washed three times with PBS, OPTI-MEM culture medium was added to induce cell starvation for an hour, 4 µM of the peptide was taken out and incubated for 2 hours. There were three negative control groups. The first group was not treated with anything. The second group that was treated with estrogen (in this experiment, estradiol was used as a kind of estrogen). The third group was treated with LPS (10 ng/ml) or with LPS (10 ng/ml) as well as estrogen (20 nM). PEP1 that was confirmed to have TNF-α inhibiting activity was used as a positive control to measure TNF-α inhibiting activity. After incubation, TNF-α was measured by following the ELISA kit manual (R&D, Minneapolis, MN, USA). The details of quantification method can be found in Experiment 2.2 of Example 1.
Using the method stated above, Peptides with TNF-α inhibiting effect were screened. PBMC-derived monocytes were stimulated with LPS (10 ng/ml), which is endotoxin, for 2 hours and were induced to starve by adding OPTI-MEM for 1 hour. After that, 4 uM of 179 peptides were treated and incubated for 2 hrs. The amount of TNF-α in the cell culture medium was measured using ELISA, and the peptides with TNF-α inhibiting effect were screened by comparing to the negative and positive controls (FIG. 3 to FIG. 23).

Substance | TNF-α inhibiting effect compared to the control group treated with only LPS | TNF-α inhibiting effect compared to the group treated with LPS and estrogen
HREARPALLTSRLRFIPKPDGLRPI (listed as Homo sapiens) [SEQ ID NO: 63] | showed TNF-α inhibiting effect | showed TNF-α inhibiting effect
IPK [SEQ ID NO: 103] | showed TNF-α inhibiting effect | showed TNF-α inhibiting effect
LLTSR (listed as Homo sapiens) [SEQ ID NO: 150] | showed TNF-α inhibiting effect | –
LLTSRL (listed as Homo sapiens) [SEQ ID NO: 108] | showed TNF-α inhibiting effect | showed TNF-α inhibiting effect
LLTSRLR (listed as Homo sapiens) [SEQ ID NO: 149] | showed TNF-α inhibiting effect | showed TNF-α inhibiting effect
LLTSRLRF (listed as Homo sapiens) [SEQ ID NO: 148] | showed TNF-α inhibiting effect | showed TNF-α inhibiting effect
LRF [SEQ ID NO: 176] | showed TNF-α inhibiting effect | –
LRFI (listed as Homo sapiens) [SEQ ID NO: 175] | showed TNF-α inhibiting effect | –
LRFIP (listed as Homo sapiens) [SEQ ID NO: 174] | showed TNF-α inhibiting effect | showed TNF-α inhibiting effect
LRFIPK (listed as Homo sapiens) [SEQ ID NO: 100] | showed TNF-α inhibiting effect | showed TNF-α inhibiting effect
LSEAEVRQHREARPALLTSRLRFIPK (listed as Homo sapiens) [SEQ ID NO: 11] | showed TNF-α inhibiting effect | showed TNF-α inhibiting effect
LTS [SEQ ID NO: 158] | showed TNF-α inhibiting effect | –
LTSRL (listed as Homo sapiens) [SEQ ID NO: 157] | showed TNF-α inhibiting effect | showed TNF-α inhibiting effect
LTSRLR (listed as Homo sapiens) [SEQ ID NO: 156] | showed TNF-α inhibiting effect | showed TNF-α inhibiting effect
LTSRLRFIPK (listed as Homo sapiens) [SEQ ID NO: 96] | showed TNF-α inhibiting effect | showed TNF-α inhibiting effect
PALLTSRLRFI (listed as Homo sapiens) [SEQ ID NO: 131] | showed TNF-α inhibiting effect | –
QHREARPALLTSRLRFIPKP (listed as Homo sapiens) [SEQ ID NO: 20] | showed TNF-α inhibiting effect | showed TNF-α inhibiting effect
QHREARPALLTSRLRFIPKPD (listed as Homo sapiens) [SEQ ID NO: 21] | showed TNF-α inhibiting effect | –
QHREARPALLTSRLRFIPKPDGLRPI (listed as Homo sapiens) [SEQ ID NO: 62] | showed TNF-α inhibiting effect | showed TNF-α inhibiting effect
REARPALLTSRLRFIPKPD (listed as Homo sapiens) [SEQ ID NO: 19] | showed TNF-α inhibiting effect | showed TNF-α inhibiting effect
REARPALLTSRLRFIPKPDGLRPI (listed as Homo sapiens) [SEQ ID NO: 64] | showed TNF-α inhibiting effect | showed TNF-α inhibiting effect

Substance | TNF-α inhibiting effect compared to the control group treated with only LPS | TNF-α inhibiting effect compared to the group treated with LPS and estrogen
RELSEAEVRQHREARPALLTSRLRFIPK (listed as Homo sapiens) [SEQ ID NO: 13] | showed TNF-α inhibiting effect | –
RFI [SEQ ID NO: 178] | showed TNF-α inhibiting effect | –
RFIP (listed as Homo sapiens) [SEQ ID NO: 177] | showed TNF-α inhibiting effect | –
RFIPK (listed as Homo sapiens) [SEQ ID NO: 101] | showed TNF-α inhibiting effect | showed TNF-α inhibiting effect
RLR [SEQ ID NO: 173] | showed TNF-α inhibiting effect | showed TNF-α inhibiting effect
RLRF (listed as Homo sapiens) [SEQ ID NO: 172] | showed TNF-α inhibiting effect | showed TNF-α inhibiting effect
RLRFIPK (listed as Homo sapiens) [SEQ ID NO: 99] | showed TNF-α inhibiting effect | showed TNF-α inhibiting effect
RPALLTSR (listed as Homo sapiens) [SEQ ID NO: 124] | showed TNF-α inhibiting effect | –
RPALLTSRLRFI (listed as Homo sapiens) [SEQ ID NO: 105] | showed TNF-α inhibiting effect | –
RPALLTSRLRFIPK (listed as Homo sapiens) [SEQ ID NO: 92] | showed TNF-α inhibiting effect | –
RQHREARPALLTSRLRFIPKP (listed as Homo sapiens) [SEQ ID NO: 25] | showed TNF-α inhibiting effect | showed TNF-α inhibiting effect
RQHREARPALLTSRLRFIPKPD (listed as Homo sapiens) [SEQ ID NO: 26] | showed TNF-α inhibiting effect | showed TNF-α inhibiting effect
RQHREARPALLTSRLRFIPKPDG (listed as Homo sapiens) [SEQ ID NO: 27] | showed TNF-α inhibiting effect | showed TNF-α inhibiting effect
RQHREARPALLTSRLRFIPKPDGL (listed as Homo sapiens) [SEQ ID NO: 28] | showed TNF-α inhibiting effect | –
SEAEVRQHREARPALLTSRLRFIPK (listed as Homo sapiens) [SEQ ID NO: 10] | showed TNF-α inhibiting effect | showed TNF-α inhibiting effect
SRLR (listed as Homo sapiens) [SEQ ID NO: 168] | showed TNF-α inhibiting effect | –
SRLRF (listed as Homo sapiens) [SEQ ID NO: 167] | showed TNF-α inhibiting effect | showed TNF-α inhibiting effect
SRLRFI (listed as Homo sapiens) [SEQ ID NO: 166] | showed TNF-α inhibiting effect | showed TNF-α inhibiting effect
SRLRFIP (listed as Homo sapiens) [SEQ ID NO: 165] | showed TNF-α inhibiting effect | showed TNF-α inhibiting effect
SRLRFIPK (listed as Homo sapiens) [SEQ ID NO: 98] | showed TNF-α inhibiting effect | showed TNF-α inhibiting effect
TSR [SEQ ID NO: 164] | showed TNF-α inhibiting effect | showed TNF-α inhibiting effect
